Source: patent publication US20020137929A1, “1 - (3-heterocyclylphenyl) isothiourea, -isourea, -guanidine and -amidine herbicidal agents” (Intellectual Property Department, BASF Aktiengesellschaft, priority 1998, published 2002)

Assays:
[1] = tested on: ECHORC (Watergrass (Calif.)); assay: Preemergence weed control under flooded paddy conditions; type: in vivo, Echinochloa oryzoides; conditions: rated 3-4 weeks after treatment
Outline: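 First, seeds or propagules go into the top 0.5 cm of silt loam; next, water is held 1.5 to 3 cm over the soil; then compound (50/50 acetone/water) is pipetted into it at about 0.0313 to 0.500 kg/ha; finally plants are rated visually 0-9 after three to four weeks.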

ORYSAT (Rice, Tebonnet) = assay: Preemergence herbicidal evaluation; type: in vivo, Oryza sativa, (L.) Tebonnet; conditions: rated 4-5 weeks after treatment
Outline: (§1)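 Herbicidal effect scored visually, 0-9, at 4 to 5 weeks against a control; compound applied preemergence by aqueous acetone spray to seeded soil at about 0.0156 to 0.500 kg/ha.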

ECHCG (Barnyardgrass) = assay: Preemergence herbicidal evaluation; type: in vivo, Echinochloa crus-galli; conditions: rated 4-5 weeks after treatment
Outline: as §1

[2] = tested on: TRZAWR (Wheat, Winter, cv Riband); assay: Postemergence herbicidal evaluation; type: in vivo, Triticum aestivum; conditions: postemergence
Outline: (§2)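 Visual 0–9 rating versus control (stand, vigor, malformation, size, chlorosis, overall appearance), taken four to five weeks post-spray. Two-week-old seedlings received roughly 0.0156–0.500 kg/ha active in acetone/water (50/50) with 0.5% TWEEN 20 via nozzle at 40 psi.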

[3] = tested on: TRZAWR (Wheat, Winter, cv Riband); assay: Preemergence herbicidal evaluation; type: in vivo, Triticum aestivum; conditions: rated 4-5 weeks after treatment
Outline: as §1

MOOVA (Monochoria) = assay: Preemergence weed control under flooded paddy conditions; type: in vivo, Monochoria vaginalis; conditions: rated 3-4 weeks after treatment
Outline: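 Values are visual 0-9 scores against a control for a preemergence application into paddy flood water at about 0.0313 to 0.500 kg/ha. Greenhouse duration was three to four weeks.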

[4] = tested on: IPOHE (Morningglory, Ivyleaf); assay: Postemergence herbicidal evaluation; type: in vivo, Ipomoea hederacea; conditions: postemergence
Outline: as §2

[5] = tested on: IPOHE (Morningglory, Ivyleaf); assay: Preemergence herbicidal evaluation; type: in vivo, Ipomoea hederacea; conditions: rated 4-5 weeks after treatment
Outline: as §1

SETVI (Foxtail, Green) = assay: Preemergence herbicidal evaluation; type: in vivo, Setaria viridis; conditions: rated 4-5 weeks after treatment
Outline: as §1

[6] = tested on: CHEAL (Lambsquarters, Common); assay: Preemergence herbicidal evaluation; type: in vivo, Chenopodium album; conditions: rated 4-5 weeks after treatment
Outline: as §1

[7] = tested on: ECHORC (Watergrass (Calif.)); assay: Postemergence weed control under flooded paddy conditions; type: in vivo, Echinochloa oryzoides; conditions: postemergence weeds, 3-4 weeks after treatment
Outline: (§3)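 Herbicidal effect is judged by eye on a 0–9 scale versus control, 3–4 weeks after dosing. Dosing is into flood water kept 1.5–3 cm over the soil, at about 0.0313–0.500 kg/ha in aqueous/acetone 50/50 v/v, on 3–5 cm weeds and 1.5–2.5-leaf rice seedlings.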

CYPIR (Rice Flatsedge) = assay: as above; type: in vivo, Cyperus iria; conditions: postemergence weeds, 3-4 weeks after treatment
Outline: as §3

ABUTH (Velvetleaf) = assay: Postemergence herbicidal evaluation; type: in vivo, Abutilon theophrasti; conditions: postemergence
Outline: as §2

Compound: CCOC(=O)CN1C(=O)C(Cc2ccccc2)SC1=Nc1cc(-n2c(=O)cc(C(F)(F)F)n(C)c2=O)c(F)cc1Cl (stereo not drawn) [Compound 24, Ethyl 5-benzyl-2-{{2-chloro-5-[3,6-dihydro-3-methyl-2,6-dioxo-4-(trifluoromethyl)-1(2H)-pyrimidinyl]-4-fluorophenyl}imino}-4-oxo-3-thiazolidineacetate]
- Herbicidal rating ECHORC ([1]; 0.0313 kg/ha): 4.0
- Herbicidal rating ECHORC ([1]; 0.0625 kg/ha): 9.0
- Herbicidal rating ECHORC ([1]; 0.1250 kg/ha): 9.0
- Herbicidal rating ECHORC ([1]; 0.2500 kg/ha): 9.0
- ORYSAT preemergence herbicidal rating (ORYSAT (Rice, Tebonnet); rate 0.0625 kg/ha): 0.0
- ORYSAT preemergence herbicidal rating (ORYSAT (Rice, Tebonnet); rate 0.1250 kg/ha): 0.0
- ORYSAT preemergence herbicidal rating (ORYSAT (Rice, Tebonnet); rate 0.2500 kg/ha): 0.0
- ECHCG preemergence herbicidal rating (ECHCG (Barnyardgrass); rate 0.0625 kg/ha): 0.0
- ECHCG preemergence herbicidal rating (ECHCG (Barnyardgrass); rate 0.1250 kg/ha): 0.0
- ECHCG preemergence herbicidal rating (ECHCG (Barnyardgrass); rate 0.2500 kg/ha): 0.0
- TRZAWR herbicidal rating ([2]; rate 0.0158 kg/ha): 3.5
- TRZAWR herbicidal rating ([2]; rate 0.0315 kg/ha): 3.5
- TRZAWR herbicidal rating ([2]; rate 0.0630 kg/ha): 3.5
- TRZAWR preemergence herbicidal rating ([3]; rate 0.0625 kg/ha): 0.0
- TRZAWR preemergence herbicidal rating ([3]; rate 0.1250 kg/ha): 0.0
- TRZAWR preemergence herbicidal rating ([3]; rate 0.2500 kg/ha): 0.0
- Herbicidal rating MOOVA (MOOVA (Monochoria); 0.0313 kg/ha): 0.0
- Herbicidal rating MOOVA (MOOVA (Monochoria); 0.0625 kg/ha): 9.0
- Herbicidal rating MOOVA (MOOVA (Monochoria); 0.1250 kg/ha): 9.0
- Herbicidal rating MOOVA (MOOVA (Monochoria); 0.2500 kg/ha): 9.0
- IPOHE herbicidal rating ([4]; rate 0.0158 kg/ha): 2.0
- IPOHE herbicidal rating ([4]; rate 0.0315 kg/ha): 9.0
- IPOHE preemergence herbicidal rating ([5]; rate 0.0625 kg/ha): 0.0
- IPOHE preemergence herbicidal rating ([5]; rate 0.1250 kg/ha): 0.0
- IPOHE preemergence herbicidal rating ([5]; rate 0.2500 kg/ha): 0.0
- SETVI preemergence herbicidal rating (SETVI (Foxtail, Green); rate 0.0625 kg/ha): 0.0
- SETVI preemergence herbicidal rating (SETVI (Foxtail, Green); rate 0.1250 kg/ha): 0.0
- SETVI preemergence herbicidal rating (SETVI (Foxtail, Green); rate 0.2500 kg/ha): 1.0
- CHEAL preemergence herbicidal rating ([6]; rate 0.0625 kg/ha): 9.0
- CHEAL preemergence herbicidal rating ([6]; rate 0.1250 kg/ha): 9.0
- CHEAL preemergence herbicidal rating ([6]; rate 0.2500 kg/ha): 9.0
- Herbicidal rating ECHORC ([7]; rate 0.0313 kg/ha): 4.0
- Herbicidal rating ECHORC ([7]; rate 0.0625 kg/ha): 9.0
- Herbicidal rating ECHORC ([7]; rate 0.1250 kg/ha): 9.0
- Herbicidal rating ECHORC ([7]; rate 0.2500 kg/ha): 9.0
- Herbicidal rating CYPIR (CYPIR (Rice Flatsedge); rate 0.0313 kg/ha): 0.0
- Herbicidal rating CYPIR (CYPIR (Rice Flatsedge); rate 0.0625 kg/ha): 0.0
- Herbicidal rating CYPIR (CYPIR (Rice Flatsedge); rate 0.1250 kg/ha): 0.0
- Herbicidal rating CYPIR (CYPIR (Rice Flatsedge); rate 0.2500 kg/ha): 0.0
- ABUTH herbicidal rating (ABUTH (Velvetleaf); rate 0.0158 kg/ha): 9.0
- ABUTH herbicidal rating (ABUTH (Velvetleaf); rate 0.0315 kg/ha): 9.0
- ABUTH herbicidal rating (ABUTH (Velvetleaf); rate 0.0630 kg/ha): 9.0
